Reference: patent publication US10662205B2, “Cyclic boronic acid ester derivatives and therapeutic uses thereof” (priority 2014, dated 2020)
Like-named read-outs stand apart in the source and are kept apart here.

Columns and labels:
KP1005 (CTX-M-14) [1] = test: Aztreonam potentiation (MPC@4); type: cell-based; settings: aztreonam 4 μg/mL
KP1009 (CTX-M-15) [2] = test: Aztreonam potentiation (MPC@4); type: cell-based; settings: aztreonam 4 μg/mL
KP1010 (SHV-12) [3] = test: Aztreonam potentiation (MPC@4); type: cell-based; settings: aztreonam 4 μg/mL
ec302 (TEM-10) [4] = test: Aztreonam potentiation (MPC@4); type: cell-based; settings: aztreonam 4 μg/mL
KP1004 (KPC-2) [5] = test: Aztreonam potentiation (MPC@4); type: cell-based; settings: aztreonam 4 μg/mL
ECL1002 [6] = test: Aztreonam potentiation (MPC@4); type: cell-based; settings: aztreonam 4 μg/mL
EC1010 (CMY-6) [7] = test: Aztreonam potentiation (MPC@4); type: cell-based; settings: aztreonam 4 μg/mL
KP1009 (CTX-M-15) [8] = test: Tigemonam potentiation (MPC@4); type: cell-based
ec308 (SHV-5) [9] = test: Tigemonam potentiation (MPC@4); type: cell-based; settings: tigemonam 4 μg/mL
KP1010 (SHV-12) [10] = test: Tigemonam potentiation (MPC@4); type: cell-based
ec302 (TEM-10) [11] = test: Tigemonam potentiation (MPC@4); type: cell-based; settings: tigemonam 4 μg/mL
EC1010 (CMY-6) [12] = test: Tigemonam potentiation (MPC@4); type: cell-based
CMY-2 = CMY-2 (Klebsiella pneumoniae, UniProt Q48434); test: Inhibition of nitrocefin cleavage by purified enzyme (Ki); type: biochemical
Sequence of CMY-2 (Q48434 21-381, species assumed): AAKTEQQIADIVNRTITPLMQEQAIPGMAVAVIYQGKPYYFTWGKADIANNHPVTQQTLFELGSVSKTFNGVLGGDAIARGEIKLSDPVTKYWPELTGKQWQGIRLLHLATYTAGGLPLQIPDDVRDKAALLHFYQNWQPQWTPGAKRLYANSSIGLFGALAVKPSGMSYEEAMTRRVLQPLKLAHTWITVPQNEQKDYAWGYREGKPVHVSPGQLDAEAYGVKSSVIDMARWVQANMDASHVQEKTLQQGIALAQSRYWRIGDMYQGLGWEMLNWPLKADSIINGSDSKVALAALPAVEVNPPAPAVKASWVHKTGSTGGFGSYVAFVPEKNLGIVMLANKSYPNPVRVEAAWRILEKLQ
Protocol: (§1) Ki values of inhibition of purified class A, C and D enzymes were determined spectrophotometrically using nitrocefin as reporter substrate. Purified enzymes were mixed with various concentrations of inhibitors in reaction buffer and incubated for 10 min at room temperature. Nitrocefin was added and substrate cleavage profiles were recorded at 490 nm every 10 sec for 10 min. These experiments confirmed that the described compounds are inhibitors with a broad-spectrum of activity towards various β-lactamases.

KPC-2 = KPC-2 (Klebsiella pneumoniae, UniProt Q9F663); test: as above; type: biochemical; settings: nitrocefin reporter substrate; 10 min preincubation; read-out: Ki KPC-2, NCF
Sequence of KPC-2 (Q9F663 25-293, looked up, species assumed): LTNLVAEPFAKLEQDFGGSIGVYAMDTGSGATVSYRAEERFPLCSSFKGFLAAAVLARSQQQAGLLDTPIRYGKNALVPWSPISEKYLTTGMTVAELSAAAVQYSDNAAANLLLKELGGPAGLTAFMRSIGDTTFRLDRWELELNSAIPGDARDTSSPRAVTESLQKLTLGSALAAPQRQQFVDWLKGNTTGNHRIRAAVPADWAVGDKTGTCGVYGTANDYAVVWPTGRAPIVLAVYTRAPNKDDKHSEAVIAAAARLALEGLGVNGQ
Protocol: as §1

OXA-48 = OXA-48 (Klebsiella pneumoniae, UniProt Q6XEC0); test: as above; type: biochemical; settings: nitrocefin reporter substrate; 10 min preincubation; read-out: Ki OXA-48, NCF
Sequence of OXA-48 (Q6XEC0 23-265, looked up, species assumed): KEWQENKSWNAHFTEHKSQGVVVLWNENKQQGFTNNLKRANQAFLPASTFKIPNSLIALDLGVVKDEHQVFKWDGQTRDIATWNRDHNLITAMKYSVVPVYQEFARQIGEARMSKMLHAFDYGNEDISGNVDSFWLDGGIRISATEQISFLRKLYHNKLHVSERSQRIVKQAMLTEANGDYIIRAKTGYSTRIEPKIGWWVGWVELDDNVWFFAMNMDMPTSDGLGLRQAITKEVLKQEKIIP
Protocol: as §1

KP1004 (KPC-2) [13] = test: Biapenem potentiation (MPC@1); settings: biapenem 1 μg/mL
KP1086 (OXA-48) = test: Biapenem potentiation (MPC@1); settings: biapenem 1 μg/mL
ec308 (SHV-5) [14] = test: Aztreonam potentiation (MPC@4); type: cell-based; settings: aztreonam 4 μg/mL
KP1005 (CTX-M-14) [15] = test: Tigemonam potentiation (MPC@4); type: cell-based; settings: tigemonam 4 μg/mL
ECL1002 [16] = test: Tigemonam potentiation (MPC@4); type: cell-based; settings: tigemonam 4 μg/mL
CTX-M-14 = CTX-M-14 (Escherichia coli, UniProt Q9L5C7); test: Inhibition of nitrocefin cleavage by purified enzyme (Ki); type: biochemical; settings: nitrocefin reporter substrate; 10 min preincubation; read-out: Ki CTX-M-14, NCF
Sequence of CTX-M-14 (Q9L5C7 29-291): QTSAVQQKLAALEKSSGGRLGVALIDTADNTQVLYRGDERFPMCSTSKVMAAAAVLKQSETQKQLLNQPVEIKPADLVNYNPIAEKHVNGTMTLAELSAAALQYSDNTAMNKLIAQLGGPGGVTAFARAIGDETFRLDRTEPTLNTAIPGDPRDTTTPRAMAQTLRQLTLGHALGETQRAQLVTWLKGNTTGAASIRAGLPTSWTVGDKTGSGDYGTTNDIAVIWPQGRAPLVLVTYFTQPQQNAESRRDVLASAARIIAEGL
Protocol: as §1, with “min.” for “min. These experiments confirmed that the described compounds are inhibitors with a broad-spectrum of activity towards various β-lactamases.”

SHV-12 = SHV-12 (Klebsiella pneumoniae, UniProt P0AD64, E235K/G234S/L31Q); test: as above; type: biochemical
Sequence of SHV-12 (P0AD64 22-286 L31Q/G234S/E235K): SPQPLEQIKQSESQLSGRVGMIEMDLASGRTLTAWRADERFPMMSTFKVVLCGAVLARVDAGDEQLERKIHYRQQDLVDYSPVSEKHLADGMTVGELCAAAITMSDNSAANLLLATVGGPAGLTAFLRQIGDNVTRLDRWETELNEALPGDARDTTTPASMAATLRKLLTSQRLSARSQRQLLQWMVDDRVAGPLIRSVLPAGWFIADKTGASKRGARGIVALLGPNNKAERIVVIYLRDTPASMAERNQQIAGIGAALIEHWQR
Protocol: as §1, with “min.” for “min. These experiments confirmed that the described compounds are inhibitors with a broad-spectrum of activity towards various β-lactamases.”

P99 = P99 (Enterobacter cloacae, UniProt P05364); test: biochemical; settings: nitrocefin reporter substrate; 10 min preincubation; read-out: Ki P99, NCF
Sequence of P99 (P05364 21-381): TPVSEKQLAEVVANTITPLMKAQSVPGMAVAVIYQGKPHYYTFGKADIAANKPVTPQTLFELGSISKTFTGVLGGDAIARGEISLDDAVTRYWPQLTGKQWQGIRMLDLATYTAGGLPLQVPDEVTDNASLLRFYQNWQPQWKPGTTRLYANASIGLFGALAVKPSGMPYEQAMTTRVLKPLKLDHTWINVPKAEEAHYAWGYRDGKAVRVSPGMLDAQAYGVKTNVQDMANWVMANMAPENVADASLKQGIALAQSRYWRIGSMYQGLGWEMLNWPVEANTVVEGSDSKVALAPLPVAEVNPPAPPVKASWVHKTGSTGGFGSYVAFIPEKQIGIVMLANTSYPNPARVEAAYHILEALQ
Protocol: as §1, with “min.” for “min. These experiments confirmed that the described compounds are inhibitors with a broad-spectrum of activity towards various β-lactamases.”

PAM1032/KPC-2 = test: Biapenem potentiation MPC64, efflux proficient strain; type: cell-based, Pseudomonas aeruginosa; set-up: unit not given here; settings: efflux proficient (MexAB-OprM overexpressed); decrease biapenem MIC 64-fold, 32 to 0.5 μg/ml
Protocol: (§2) Efflux of BLIs from Pseudomonas aeruginosa by the MexAB-OprM efflux pump was also evaluated. The plasmid expressing the gene encoding KPC-2 was introduced into two strains of P. aeruginosa, PAM1032 and PAM1154 that overexpressed or lacked MexAB-OprM, respectively. Due to expression of KPC-2 both strains became resistant to biapenem. […] Potency of BLIs to potentiate biapenem in these strains was determined. […] The ratio of MPC64 values for each BLI in PAM1032/KPC-2 (efflux proficient) and PAM1154/KPC-2 (efflux deficient) was determined to generate the Efflux Index (EI).

PAM1154/KPC-2 = test: Biapenem potentiation MPC64, efflux deficient strain; type: cell-based, Pseudomonas aeruginosa; set-up: unit not given here; settings: efflux deficient (lacks MexAB-OprM); decrease biapenem MIC 64-fold, 32 to 0.5 μg/ml
Protocol: as §2

[17] = tigemonam 4 μg/mL, EC1010, CMY-6
[18] = nitrocefin reporter substrate, 10 min preincubation, read-out: Ki CMY-2, NCF

Structure (SMILES)	MPC@4 aztreonam potentiation (KP1005 (CTX-M-14) [1])	MPC@4 aztreonam potentiation (KP1009 (CTX-M-15) [2])	MPC@4 aztreonam potentiation (KP1010 (SHV-12) [3])	MPC@4 aztreonam potentiation (ec302 (TEM-10) [4])	MPC@4 aztreonam potentiation (KP1004 (KPC-2) [5])	MPC@4 aztreonam potentiation (ECL1002 [6])	MPC@4 aztreonam potentiation (EC1010 (CMY-6) [7])	MPC@4 tigemonam potentiation (ec308 (SHV-5) [9])	MPC@4 tigemonam potentiation (ec302 (TEM-10) [11])	MPC@4 tigemonam potentiation (EC1010 (CMY-6) [12]; [17])	Ki (KPC-2) [nM]	Ki (OXA-48) [nM]	MPC@1 biapenem potentiation (KP1004 (KPC-2) [13])	MPC@1 biapenem potentiation (KP1086 (OXA-48))	MPC@4 aztreonam potentiation (ec308 (SHV-5) [14])	MPC@4 tigemonam potentiation (KP1005 (CTX-M-14) [15])	MPC@4 tigemonam potentiation (KP1009 (CTX-M-15) [8])	MPC@4 tigemonam potentiation (KP1010 (SHV-12) [10])	MPC@4 tigemonam potentiation (ECL1002 [16])	Ki (CTX-M-14) [nM]	further results
C[C@]1(Cn2ccnn2)[C@H](C(=O)O)N2C(=O)C[C@H]2S1(=O)=O [Tazobactam, reference compound]	Y (Y = 5 μg/mL < MPC@4 ≤ 20 μg/mL)	Y (Y = 5 μg/mL < MPC@4 ≤ 20 μg/mL)	X (X = MPC@4 ≤ 5 μg/mL)	X (X = MPC@4 ≤ 5 μg/mL)	Z (Z = MPC@4 > 20 μg/mL)	Z (Z = MPC@4 > 20 μg/mL)	Y (Y = 5 μg/mL < MPC@4 ≤ 20 μg/mL)	X (X = MPC@4 ≤ 5 μg/mL)	X (X = MPC@4 ≤ 5 μg/mL)	X (X = MPC@4 ≤ 5 μg/mL)	> 1000	100 to 1000	Z (Z = MPC@1 > 20 μg/mL)	Y (Y = 5 μg/mL < MPC@1 ≤ 20 μg/mL)							MPC@4 tigemonam potentiation (KP1009 (CTX-M-15) [8]; tigemonam 4 μg/mL, KP1009, CTX-M-15): Y (Y = 5 μg/mL < MPC@4 ≤ 20 μg/mL); MPC@4 tigemonam potentiation (KP1010 (SHV-12) [10]; tigemonam 4 μg/mL, KP1010, SHV-12): X (X = MPC@4 ≤ 5 μg/mL); Ki (CMY-2): 100 to 1000 nM
N#CCSCC(=O)N[C@H]1CC=C[C@@H]2CC(=O)OB1O2 [Compound 2, 2-(CYANOMETHYLTHIO)-N-((2R,6S)-8-OXO-9,10-DIOXA-1-BORABICYCLO[4.3.1]DEC-4-EN-2-YL)ACETAMIDE]	X (X = MPC@4 ≤ 5 μg/mL)	X (X = MPC@4 ≤ 5 μg/mL)	X (X = MPC@4 ≤ 5 μg/mL)	X (X = MPC@4 ≤ 5 μg/mL)	X (X = MPC@4 ≤ 5 μg/mL)	X (X = MPC@4 ≤ 5 μg/mL)	X (X = MPC@4 ≤ 5 μg/mL)	X (X = MPC@4 ≤ 5 μg/mL)	Y (Y = 5 μg/mL < MPC@4 ≤ 20 μg/mL)	X (X = MPC@4 ≤ 5 μg/mL)	100 to 1000	100 to 1000	X (X = MPC@1 ≤ 5 μg/mL)	Z (Z = MPC@1 > 20 μg/mL)	X (X = MPC@4 ≤ 5 μg/mL)	X (X = MPC@4 ≤ 5 μg/mL)	X (key: X = MPC@4 ≤ 5 μg/mL; Y = 5 μg/mL < MPC@4 ≤ 20 μg/mL; Z = MPC@4 > 20 μg/mL)	X (key: X = MPC@4 ≤ 5 μg/mL; Y = 5 μg/mL < MPC@4 ≤ 20 μg/mL; Z = MPC@4 > 20 μg/mL)	X (X = MPC@4 ≤ 5 μg/mL)	< 100	Ki (SHV-12): < 100 nM; Ki (CMY-2; [18]): < 100 nM; Ki (P99): < 100 nM; PAM1032/KPC-2 Biapenem MPC64 (PAM1032/KPC-2): 80; PAM1154/KPC-2 Biapenem MPC64 (PAM1154/KPC-2): 5
O=C(O)[C@H]1/C(=C/CO)O[C@@H]2CC(=O)N21 [Clavulanic Acid, reference compound]	X (X = MPC@4 ≤ 5 μg/mL)	X (X = MPC@4 ≤ 5 μg/mL)	X (X = MPC@4 ≤ 5 μg/mL)	X (X = MPC@4 ≤ 5 μg/mL)	Z (Z = MPC@4 > 20 μg/mL)	Z (Z = MPC@4 > 20 μg/mL)	Z (Z = MPC@4 > 20 μg/mL)	X (X = MPC@4 ≤ 5 μg/mL)	X (X = MPC@4 ≤ 5 μg/mL)		> 1000	> 1000	Y (Y = 5 μg/mL < MPC@1 ≤ 20 μg/mL)	Z (Z = MPC@1 > 20 μg/mL)	X (X = MPC@4 ≤ 5 μg/mL)	X (X = MPC@4 ≤ 5 μg/mL)	X (key: X = MPC@4 ≤ 5 μg/mL; Y = 5 μg/mL < MPC@4 ≤ 20 μg/mL; Z = MPC@4 > 20 μg/mL)	X (key: X = MPC@4 ≤ 5 μg/mL; Y = 5 μg/mL < MPC@4 ≤ 20 μg/mL; Z = MPC@4 > 20 μg/mL)	Y (Y = 5 μg/mL < MPC@4 ≤ 20 μg/mL)	< 100	MPC@4 tigemonam potentiation (EC1010 (CMY-6) [12]): Y (key: X = MPC@4 ≤ 5 μg/mL; Y = 5 μg/mL < MPC@4 ≤ 20 μg/mL; Z = MPC@4 > 20 μg/mL); Ki (CMY-2; [18]): > 1000 nM
O=C(CSc1nncs1)N[C@H]1CC=C[C@@H]2CC(=O)OB1O2 [Compound 7, 2-(1,3,4-THIADIAZOL-2-YLTHIO)-N-((2R,6S)-8-OXO-9,10-DIOXA-1-BORABICYCLO[4.3.1]DEC-4-EN-2-YL)ACETAMIDE]	X (X = MPC@4 ≤ 5 μg/mL)	X (X = MPC@4 ≤ 5 μg/mL)	X (X = MPC@4 ≤ 5 μg/mL)	X (X = MPC@4 ≤ 5 μg/mL)	X (X = MPC@4 ≤ 5 μg/mL)	X (X = MPC@4 ≤ 5 μg/mL)	X (X = MPC@4 ≤ 5 μg/mL)	X (X = MPC@4 ≤ 5 μg/mL)	Y (Y = 5 μg/mL < MPC@4 ≤ 20 μg/mL)	X (X = MPC@4 ≤ 5 μg/mL)	100 to 1000	< 100	X (X = MPC@1 ≤ 5 μg/mL)	Z (Z = MPC@1 > 20 μg/mL)	X (X = MPC@4 ≤ 5 μg/mL)	X (X = MPC@4 ≤ 5 μg/mL)	X (key: X = MPC@4 ≤ 5 μg/mL; Y = 5 μg/mL < MPC@4 ≤ 20 μg/mL; Z = MPC@4 > 20 μg/mL)	X (key: X = MPC@4 ≤ 5 μg/mL; Y = 5 μg/mL < MPC@4 ≤ 20 μg/mL; Z = MPC@4 > 20 μg/mL)	X (X = MPC@4 ≤ 5 μg/mL)	< 100	Ki (SHV-12): < 100 nM; Ki (CMY-2; [18]): < 100 nM; Ki (P99): < 100 nM; PAM1032/KPC-2 Biapenem MPC64 (PAM1032/KPC-2): 40; PAM1154/KPC-2 Biapenem MPC64 (PAM1154/KPC-2): 5
Cc1nnc(SCC(=O)N[C@H]2CC=C[C@@H]3CC(=O)OB2O3)s1 [Compound 8, 2-(5-METHYL-1,3,4-THIADIAZOL-2-YLTHIO)-N-((2R,6S)-8-OXO-9,10-DIOXA-1-BORABICYCLO[4.3.1]DEC-4-EN-2-YL)ACETAMIDE]	X (X = MPC@4 ≤ 5 μg/mL)		X (X = MPC@4 ≤ 5 μg/mL)	X (X = MPC@4 ≤ 5 μg/mL)	Y (Y = 5 μg/mL < MPC@4 ≤ 20 μg/mL)	X (X = MPC@4 ≤ 5 μg/mL)	Y (Y = 5 μg/mL < MPC@4 ≤ 20 μg/mL)	Y (Y = 5 μg/mL < MPC@4 ≤ 20 μg/mL)	Y (Y = 5 μg/mL < MPC@4 ≤ 20 μg/mL)	X (X = MPC@4 ≤ 5 μg/mL)	100 to 1000	< 100	X (X = MPC@1 ≤ 5 μg/mL)	Z (Z = MPC@1 > 20 μg/mL)	X (X = MPC@4 ≤ 5 μg/mL)	Y (Y = 5 μg/mL < MPC@4 ≤ 20 μg/mL)	X (key: X = MPC@4 ≤ 5 μg/mL; Y = 5 μg/mL < MPC@4 ≤ 20 μg/mL; Z = MPC@4 > 20 μg/mL)	X (key: X = MPC@4 ≤ 5 μg/mL; Y = 5 μg/mL < MPC@4 ≤ 20 μg/mL; Z = MPC@4 > 20 μg/mL)	X (X = MPC@4 ≤ 5 μg/mL)	< 100	Ki (SHV-12): < 100 nM; Ki (CMY-2; [18]): < 100 nM; Ki (P99): < 100 nM
